{
  "source": "patent US10421755B2",
  "about": "“Salts of aza-bicyclic di-aryl ethers and methods to make them or their precursors” (Novartis AG, priority 2011, dated 2019)",
  "key": {"[1]": {"assay": "Known multiple solid forms", "type": "physicochemical", "conditions": "comparison table, Example 7"}, "[2]": {"assay": "Hygroscopicity (moisture gain at relative humidity)", "type": "physicochemical", "parameters": "Hygroscopy @ 85% RH: unit not given here"}, "mice": {"tested_on": "mice", "assay": "Social Recognition Test in mice", "type": "in vivo", "conditions": "oral, dose 0.3 mg/kg, familiar partner at 24 h vs time 0", "description": "Assay: Social interactions between two experimental animals are influenced by their degree of familiarity: the better they know each other, the less time they spend on mutual scrutiny at each meeting. […] Memory enhancing agents (i.e. oxiracetam) facilitate learning to the extent that the previously met (familiar) partner is still remembered after 24 h, whereas in vehicle treated control animals the memory usually fades after less than 1 hour (Thor and Holloway, 1982) or after 2-3 hours.\nBaseline-test: Pairs consisting of one adult and one young mouse were assigned at random to the experimental and control groups. In each pair only the adult mouse was orally treated 1 hour before the trial with either vehicle or the test compound. The duration of active contacts of the adult mouse with the young mouse was manually recorded over a period of 3 min, including the following behavioural, approach-related items: sniffing, nosing, grooming, licking, pawing and playing, anogenital exploration and orientation toward the young mouse; orientation, thereby, was defined as tip of nose of the adult mouse less than approximately 1 cm distant from the young mouse's body. […]"}, "[3]": {"assay": "Pharmacokinetics in rats after oral administration", "type": "in vivo, Wistar rats", "conditions": "male, Wistar, rat, in vivo, po, 10 mg/kg; for Tmax: Tmax (h)", "description": "If a salt forming agent is used (e.g. fumarate), a corresponding higher amount of the salt will be used to achieve the intended dosing.\nBoth compounds were dissolved in Klucel™ (0.5% in water) and were orally administered by gavage (5 ml/kg) to conscious rats (n=8, cross-over design).\nK3-EDTA blood (˜0.2 ml) was collected by puncture of a sublingual vein under light isoflurane anesthesia at the following time points: 0.25, 0.5, 1, 2, 3, 4, 6, 8, 24 h post dose. Immediately after sampling, blood samples were put on ice and were processed to plasma by centrifugation at 4° C. within 15 min after sampling (1000 g, 10 min, 4° C.) to obtain ˜100 μl plasma/sample. All plasma samples were stored at −80° C. until analysis. Since the PK study was performed in a cross-over design, a recovery period of approximately 2 weeks took place before the next treatment/blood sampling was performed.\nThe determination of compounds in plasma was done by LC-MS/MS using electrospray ionization."}, "Aqueous solubility": {"assay": "Aqueous solubility", "type": "physicochemical"}, "[4]": {"assay": "Decomposition temperature", "type": "physicochemical", "parameters": "unit not given here", "conditions": "comparison table, Example 7"}, "[5]": {"target": "T1, human neuronal nAChR α4β2 (Homo sapiens, UniProt P17787+P43681)", "T1 construct": "expressed in transfected cells", "T1 sequence (P43681 29-627 limits assumed)": "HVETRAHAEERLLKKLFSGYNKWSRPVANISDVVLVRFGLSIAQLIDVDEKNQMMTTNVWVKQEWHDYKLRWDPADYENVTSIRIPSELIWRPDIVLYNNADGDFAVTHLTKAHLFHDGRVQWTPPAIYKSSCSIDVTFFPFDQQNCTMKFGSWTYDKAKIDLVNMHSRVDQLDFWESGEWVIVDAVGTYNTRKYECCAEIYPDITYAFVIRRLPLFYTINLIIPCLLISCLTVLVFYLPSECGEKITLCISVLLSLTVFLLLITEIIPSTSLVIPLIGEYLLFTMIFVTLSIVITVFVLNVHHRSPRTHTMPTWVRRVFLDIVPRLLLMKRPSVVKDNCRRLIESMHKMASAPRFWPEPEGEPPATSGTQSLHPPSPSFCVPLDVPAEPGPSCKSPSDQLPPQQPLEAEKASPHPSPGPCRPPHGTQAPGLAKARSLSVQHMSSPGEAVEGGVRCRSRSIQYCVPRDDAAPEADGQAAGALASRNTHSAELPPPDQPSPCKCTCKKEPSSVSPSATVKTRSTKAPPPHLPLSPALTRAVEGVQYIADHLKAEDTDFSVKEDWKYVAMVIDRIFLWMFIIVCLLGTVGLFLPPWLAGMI", "T1 sequence (P17787 26-502)": "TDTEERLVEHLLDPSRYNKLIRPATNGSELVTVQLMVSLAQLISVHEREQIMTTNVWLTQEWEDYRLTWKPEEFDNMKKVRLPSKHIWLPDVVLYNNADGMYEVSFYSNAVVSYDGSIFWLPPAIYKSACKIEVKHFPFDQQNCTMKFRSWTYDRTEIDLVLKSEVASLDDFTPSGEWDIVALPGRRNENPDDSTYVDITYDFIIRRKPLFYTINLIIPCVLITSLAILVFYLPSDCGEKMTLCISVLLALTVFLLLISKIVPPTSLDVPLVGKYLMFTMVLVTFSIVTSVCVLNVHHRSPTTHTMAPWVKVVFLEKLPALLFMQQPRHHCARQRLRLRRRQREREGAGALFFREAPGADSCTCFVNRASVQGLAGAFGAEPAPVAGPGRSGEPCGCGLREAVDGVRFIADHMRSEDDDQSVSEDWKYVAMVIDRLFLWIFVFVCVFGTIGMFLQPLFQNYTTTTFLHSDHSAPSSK", "assay": "similar functional assay using a human epithelial cell line stably expressing the human α4β2 subtype", "type": "cell-based", "description": "To assess the activity of the compound of the invention on the human neuronal nAChR α4β2, a similar functional assay is carried out using a human epithelial cell line stably expressing the human α4β2 subtype (Michelmore et al., Naunyn-Schmiedeberg's Arch. Pharmacol. (2002) 366, 235)."}, "human α7-nAChR": {"target": "T2, human α7-nAChR (Homo sapiens, UniProt P36544)", "T2 construct": "expressed in transfected cells; host or cells: GH3 cells (rat pituitary line)", "T2 sequence (P36544 23-502)": "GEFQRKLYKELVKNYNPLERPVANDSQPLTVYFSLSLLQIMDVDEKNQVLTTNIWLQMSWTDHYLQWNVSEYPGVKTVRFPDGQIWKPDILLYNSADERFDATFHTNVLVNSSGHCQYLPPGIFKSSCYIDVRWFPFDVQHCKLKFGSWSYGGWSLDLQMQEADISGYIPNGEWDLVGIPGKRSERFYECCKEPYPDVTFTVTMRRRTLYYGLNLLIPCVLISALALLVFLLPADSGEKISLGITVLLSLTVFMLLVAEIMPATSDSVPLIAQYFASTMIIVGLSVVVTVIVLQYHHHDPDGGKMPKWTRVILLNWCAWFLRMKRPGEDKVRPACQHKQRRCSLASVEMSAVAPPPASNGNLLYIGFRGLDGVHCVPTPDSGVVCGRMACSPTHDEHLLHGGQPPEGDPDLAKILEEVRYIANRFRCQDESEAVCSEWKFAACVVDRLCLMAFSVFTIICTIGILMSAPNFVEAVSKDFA", "assay": "functional assay (FLIPR, Fluo-4 calcium) using GH3 cells that recombinantly expressed human α7-nAChR", "type": "cell-based", "description": "Assay: To assess α7-nAChR activity, a functional assay was employed using GH3 cells that recombinantly expressed human α7-nAChR. 40000 cells per well were seeded 48 h prior to the experiment on black 96-well plates (Costar) and incubated at 37° C. in a humidified atmosphere (5% CO2/95% air). On the day of the experiment, medium was removed by flicking the plates and replaced with 0.1 ml growth medium containing 0.002 mM Fluo-4, (Molecular Probes) in the presence of 2.5 mM probenecid (Sigma). The cells were incubated at 37° C. in a humidified atmosphere (5% CO2/95% air) for 1 h. Plates were flicked to remove excess of Fluo-4, washed twice with Hepes-buffered salt solution (HBSS, in mM: NaCl 130, KCl 5.4, CaCl2 2, MgSO4 0.8, NaH2PO4 0.9, glucose 25, Hepes 20, pH 7.4; HBS) and refilled with 0.1 ml of HBS containing antagonist when appropriate. The incubation in the presence of the antagonist lasted 3-5 minutes. Plates were placed in the cell plate stage of a FLIPR device (fluorimetric imaging plate reader, Molecular Devices, Sunnyvale, Calif., USA). After recording of the baseline (laser: excitation 488 nm at 1 W, CCD camera opening of 0.4 seconds) the agonists (0.05 ml) were added to the cell plate using the FLIPR 96-tip pipettor while simultaneously recording the fluorescence. […]"}},
  "data": [
    {"smiles": "Cc1ccc(-c2ccc(O[C@H]3CN4CCC3CC4)cn2)cc1", "note": "[Compound A, (R)-3-(6-(4-methylphenyl)-pyridin-3-yloxy)-1-aza-bicyclo[2.2.2]octane]", "values": [
      {"measurement": "Known Multiple forms", "setting": "[1]", "result": "Yes"},
      {"measurement": "hygroscopicity (in words)", "setting": "[2]", "result": "hygroscopic"},
      {"measurement": "moisture gain", "setting": "[2]; at 93% relative humidity (RH)", "result": 2, "unit": "%"},
      {"measurement": "Hygroscopy @ 85% RH", "setting": "[2]; comparison table, Example 7", "result": "~2"},
      {"measurement": "Reduction in time scrutinizing in % ± SEM at 24 h", "setting": "mice", "result": "36 ± 6", "unit": "%"},
      {"measurement": "Cmax/Dose (ng/mL)/(mg/kg), Mean All", "setting": "[3]", "result": "11.3 (ng/mL)/(mg/kg)"},
      {"measurement": "AUC(0-t)", "setting": "[3]; AUClast (h · ng/mL), Mean All", "result": "200 ± 62", "unit": "ng·h/mL"},
      {"measurement": "Cmax", "setting": "[3]; Cmax (ng/mL), Mean All", "result": "112 ± 40", "unit": "ng/mL"},
      {"measurement": "Tmax", "setting": "[3]", "result": 15, "unit": "min"},
      {"measurement": "Tmax", "setting": "[3]; all rats", "result": "15 to 30", "unit": "min"},
      {"measurement": "half-life", "setting": "[3]; T½ (h), Mean All", "result": 310, "unit": "min"},
      {"measurement": "aqueous solubility (in words)", "setting": "Aqueous solubility", "result": "low"},
      {"measurement": "solubility", "setting": "Aqueous solubility; aqueous medium, comparison table, Example 7", "result": 50, "unit": "µg/mL"},
      {"measurement": "Decomposition temperature", "setting": "[4]", "result": 224},
      {"measurement": "EC50", "setting": "[5]", "result": "> 100", "unit": "µM"},
      {"measurement": "IC50", "setting": "[5]", "result": 5.6, "unit": "µM"},
      {"measurement": "α7-nAChR activity Efficacy compared to epibatidine (100%)", "setting": "human α7-nAChR; Emax relative to epibatidine response", "result": 75, "unit": "%"},
      {"measurement": "EC50", "setting": "human α7-nAChR; GH3 cells, human α7-nAChR, read-out: α7-nAChR activity Potency EC50", "result": 0.035, "unit": "µM"}
    ]}
  ]
}
